For eight molecules, minimal effective dose results are on record in patent EP0563686A1, “Utilization of 3 substituted amino isoxazole derivatives against endoparasites, new 3 substituted amino isoxazols and process for their preparation” (BAYER AG, priority 1992, dated 1993).

Test [1] concerns Haemonchus contortus. The test can be described thus: In vivo nematode test, Haemonchus contortus / sheep (faecal worm egg count before and after treatment). Also noted: species or system Schaf. To be noted: experimentally infected sheep, treated after prepatency, pure active in gelatin capsules, oral, dose giving complete cessation of egg excretion, read-out: Dosis effectiva. An excerpt:
Haemonchus contortus / Schaf
Experimentell mit Haemonchus contortus infizierte Schafe wurden nach Ablauf der Präpatenzzeit des Parasiten behandelt. Die Wirkstoffe wurden als reiner Wirkstoff in Gelatinekapseln oral appliziert.
(§1) Der Wirkungsgrad wird dadurch bestimmt, daß man die mit dem Kot ausgeschiedenen Wurmeier vor und nach der Behandlung quantitativ auszählt.
Ein völliges Sistieren der Eiausscheidung nach der Behandlung bedeutet, daß die Wärmer abgetrieben wurden oder so geschädigt sind, daß sie keine Eier mehr produzieren (Dosis effectiva).
(§2) Geprüfte Wirkstoffe und wirksame Dosierungen (Dosis effectiva) sind aus der nachfolgenden Tabelle ersichtlich.

Test [2] has as its system Trichostrongylus colubriformis. Kind of test: In vivo nematode test, Trichostrongylus colubriformis / sheep (faecal worm egg count before and after treatment). Also noted: species or system Schaf. As to conditions: experimentally infected sheep, treated after prepatency, pure active in gelatin capsules, oral, dose giving complete cessation of egg excretion, read-out: Dosis effectiva.
Text: Trichostrongylus colubriformis / Schaf
Experimentell mit Trichostrongylus colubriformis infizierte Schafe wurden nach Ablauf der Präpatenzzeit des Parasiten behandelt. Die Wirkstoffe wurden als reiner Wirkstoff in Gelatinekapseln oral appliziert.
as §1
Ein völliges Sistieren der Eiausscheidung nach der Behandlung bedeutet, daß die Würmer abgetrieben wurden oder so geschädigt sind, daß sie keine Eier mehr produzieren (Dosis effectiva).
as §2

For the molecule `Brc1ccc(-c2cc(NC3CCCCC3)no2)cc1` [Beispiel 43], the minimal effective dose in test [1] turned out to be 10 mg/kg. Turning to `CCNc1cc(-c2ccsc2)on1` [Beispiel 63], in test [2], the minimal effective dose turned out to be 10 mg/kg. Regarding `COc1ccc(-c2cc(NCCc3ccccc3)no2)cc1` [Beispiel 13], the minimal effective dose in test [1] turned out to be 10 mg/kg.

For the molecule `CCNc1cc(-c2ccc(OC)cc2)on1` [Beispiel 4, 3-Ethylamino-5-(4-methoxyphenyl)-isoxazol], the minimal effective dose in test [1] and in test [2] was 10 mg/kg in each case. As for `CCNc1cc(-c2cccnc2)on1` [Beispiel 57], the minimal effective dose in test [1] and in test [2] was 10 mg/kg throughout.

For the molecule `COc1ccc(-c2cc(NCC3CC3)no2)cc1` [Beispiel 10], the minimal effective dose in test [1] and in test [2] was 10 mg/kg each time. In the case of `COc1ccc(-c2cc(NC3CC3)no2)cc1` [Beispiel 6], the minimal effective dose in test [1] and in test [2] was 10 mg/kg each time. For `CCNc1cc(-c2ccc(SC(F)(F)F)cc2)on1` [Beispiel 22], the minimal effective dose in test [1] and in test [2] was 10 mg/kg each time.
